According to article PMC6269915, “Design, Synthesis and Evaluation of 3-(2-Aminoheterocycle)-4-benzyloxyphenylbenzamide Derivatives as BACE-1 Inhibitors” (Molecules, 2013):
“Also recorded” adds a separate entry of the source. Where a name gives a salt, the structure may show the parent alone. Read-outs that look alike come from different tables or passages of the source.

Experiments:
[1] = Bidirectional transport across MDCK monolayer cells; format: in vitro ADME, canine; details: dog
Description: (§1) Blood-brain barrier (BBB) permeation is critical for any AD therapeutic drug.
(§2) Madin-Darby canine kidney cell line (MDCK) was obtained from Peking Union Medical College (Beijing, China). The MDR1-transfected MDCK-MDR1 cells were established in Prof. Su Zeng’s laboratory as follows: MDCK cells were seeded onto six-well plates with a seeding density of 1 × 10^5 cells/well and cultured for 48 h. pcDNA3.1(+)/MDR1 plasmid vector was transfected into MDCK cells using Lipofectamine ^TM 2000 reagent according to the manufacturer’s instructions. Cells were subcultured in DMEM containing 600 µg/mL G418 for 96 h, and then replaced by DMEM containing 800 μg/mL G418 for a further 24 h. Cells were transferred to culture bottle and incubated in DMEM supplemented with 600 μg/mL G418 for 20 days. 19 stable transfected monoclonals grown on 96-well plates were obtained after dilution screening. Cells were cultured in DMEM with 10% fetal bovine serum, and grown in a humidified atmosphere of 5% CO2 at 37 °C. A solution of 0.25% trypsin-EDTA was used to detach the cells from flasks.
MDCK and MDCK-MDR1 cells were washed twice and equilibrated at 37 °C for 30 min with pre-warmed transport buffer. Hanks’ balanced salted solution (HBSS) containing HEPES (25 mM, pH 7.4). The transport buffer containing drug passed through a 0.2 μm membrane filter for degerming. For the absorption study (Apical to Basolateral), 0.5 mL incubation medium containing drug was added to the apical side as a donor chamber, 1.5 mL fresh incubation medium was added to the basolateral side as a receiver chamber. For the secretion study (Basolateral to Apical), 1.5 mL incubation medium containing drug was added to the basolateral side as a donor chamber, 0.5 mL fresh incubation medium was added to the apical side as a receiver chamber. Transport studies were conducted at 37 °C in a humidiﬁed incubator with shaking (50 rpm) for 1 h, and then the collected samples were analyzed by HPLC. […]

[2] = test system: MDCK-MDR1 cells; assay: Bidirectional transport across MDCK-MDR1 monolayer cells; format: in vitro ADME, canine
Description: as §1, §2
(§3) MDCK and MDCK-MDR1 cells were washed twice and equilibrated at 37 °C for 30 min with pre-warmed transport buffer. Hanks’ balanced salted solution (HBSS) containing HEPES (25 mM, pH 7.4). The transport buffer containing drug passed through a 0.2 μm membrane filter for degerming. For the absorption study (Apical to Basolateral), 0.5 mL incubation medium containing drug was added to the apical side as a donor chamber, 1.5 mL fresh incubation medium was added to the basolateral side as a receiver chamber. For the secretion study (Basolateral to Apical), 1.5 mL incubation medium containing drug was added to the basolateral side as a donor chamber, 0.5 mL fresh incubation medium was added to the apical side as a receiver chamber. Transport studies were conducted at 37 °C in a humidiﬁed incubator with shaking (50 rpm) for 1 h, and then the collected samples were analyzed by HPLC. Apparent permeability coefficients (Papp(A-B), Papp(B-A)) and efflux ratio (Pratio = (Papp(B-A)/Papp(A-B)) were used to evaluate the permeability and absorption profiles of compounds. P ratio is an important parameter to denote if a compound is a substrate of P-gp or not.

[3] = test system: P-gp (MDR1); assay: as above; format: in vitro ADME, canine; details: dog
Description: as §1, §2, §3

[4] = molecular target: T1, BACE-1 (Homo sapiens, UniProt P56817); assay: BACE-1 inhibition, fluorescence resonance energy transfer (FRET) assay; format: biochemical; details: BACE-1 FRET assay; for inhibition at 20 µg/mL: 20 μg/mL
T1 construct: host or cells: insect cells
Description: The obtained target compounds were tested for their BACE-1 inhibitory activities using a fluorescence resonance energy transfer (FRET) assay, with OM99-2, a potent peptidomimetic inhibitor, as the positive control.
All synthesized compounds were tested for their BACE 1 inhibitor activities using a fluorescence resonance energy transfer (FRET) assay, which used purified insect-expressed BACE-1 and a specific substrate. An excitation wavelength of 355 nm and an emission wavelength of 460 nm were used to monitor the hydrolysis of substrate.

[5] = molecular target: T1, BACE-1; details: cited from earlier work
[6] = design: method as in PMID 17156133; details: in words; cited from earlier work
[7] = design: method as in PMID 19409780; details: mice, 20 mg/kg iv, t = 30 min; cited from earlier work
[8] = pH 7.4, 55.6 μM 5e, 1 h, mean ± SD, n = 3
[9] = pH 7.4, MDCK-MDR1, 55.6 μM 5e, 1 h, mean ± SD, n = 3

T1 sequence (P56817 46-501): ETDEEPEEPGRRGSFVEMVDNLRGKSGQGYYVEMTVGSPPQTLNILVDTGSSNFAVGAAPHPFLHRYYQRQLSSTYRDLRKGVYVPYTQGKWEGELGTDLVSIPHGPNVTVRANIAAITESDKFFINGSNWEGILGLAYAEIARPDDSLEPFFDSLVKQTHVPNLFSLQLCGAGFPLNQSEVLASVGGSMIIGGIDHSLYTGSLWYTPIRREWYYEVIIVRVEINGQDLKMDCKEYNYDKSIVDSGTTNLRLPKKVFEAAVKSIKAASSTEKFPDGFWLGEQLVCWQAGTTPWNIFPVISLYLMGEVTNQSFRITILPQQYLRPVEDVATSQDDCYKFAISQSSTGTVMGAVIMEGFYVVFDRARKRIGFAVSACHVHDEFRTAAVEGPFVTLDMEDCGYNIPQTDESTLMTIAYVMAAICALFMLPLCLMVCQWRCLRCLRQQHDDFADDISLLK

Row | Compound | melting point [°C] | inhibition at 20 µg/mL [4] [%] | other results
1 | Br.NC1=NN=C(c2cc(NC(=O)c3cccc4ccccc34)ccc2OCc2ccccc2)CS1 [5e, N-(3-(2-Amino-6H-1,3,4-thiadiazin-5-yl)-4-(benzyloxy)phenyl)-1-naphthamide hydrobromide] | 219 to 221 | 60 ± 3.1 | Papp A→B at 1 h, 55.6 μM [1, 8]: 28.2 ± 6.45 ×10⁻⁶ cm/s; Papp B→A at 1 h, 55.6 μM [1, 8]: 27.7 ± 2.87 ×10⁻⁶ cm/s; efflux ratio at 1 h, 55.6 μM ([1]; pH 7.4, Papp(B-A)/Papp(A-B)): 0.98; Blood-brain barrier permeability assessment ([2]; MDCK and MDCK-MDR1 model, in words): high brain uptake potential; also recorded: good penetration ability through the blood-brain barrier; also recorded: favorable blood-brain barrier permeability; P-gp substrate assessment ([2]; net efflux ratio less than FDA's recommendation of 2): not a P-gp substrate; efflux ratio at 1 h, 55.6 μM ([3]; MDCK-MDR1, pH 7.4, MDCK-MDR1, Papp(B-A)/Papp(A-B), read-out: Efflux ratio): 0.7; efflux ratio at 1 h, 55.6 μM ([3]; MDCK-MDR1, pH 7.4, MDCK-MDR1 versus MDCK, read-out: Net efflux ratio): 0.71; Papp A→B at 1 h, 55.6 μM [3, 9]: 31.8 ± 1.85 ×10⁻⁶ cm/s; Papp B→A at 1 h, 55.6 μM [3, 9]: 22.2 ± 1.24 ×10⁻⁶ cm/s; IC50 [4]: 9.9 µM
2 | Nc1nc(-c2cc(NC(=O)c3cccc4ccccc34)ccc2OCc2ccccc2)cs1 [3e, N-(3-(2-Aminothiazol-4-yl)-4-(benzyloxy)phenyl)-1-naphthamide] | 198 to 200 | 55.3 ± 5.7 | IC50 [4]: > 20 µM
3 | COc1ccc(C(=O)Nc2ccc(OCc3ccccc3)c(-c3csc(N)n3)c2)cc1 [3d, N-(3-(2-Aminothiazol-4-yl)-4-(benzyloxy)phenyl)-4-methoxybenzamide] | – | 29.5 ± 3.5 | –
4 | Nc1nc(-c2cc(NC(=O)Cc3cccc4ccccc34)ccc2OCc2ccccc2)cs1 [3i, N-(3-(2-Aminothiazol-4-yl)-4-(benzyloxy)phenyl)-2-(naphthalen-1-yl)acetamide] | 246 to 247 | 11.3 ± 0.7 | –
5 | Nc1nc(-c2cc(NC(=O)Cc3ccccc3)ccc2OCc2ccccc2)cs1 [3g, N-(3-(2-Aminothiazol-4-yl)-4-(benzyloxy)phenyl)-2-phenylacetamide] | 190 to 193 | 8.9 ± 7 | –
6 | Nc1nc(-c2cc(NC(=O)c3ccc(C(F)(F)F)cc3)ccc2OCc2ccccc2)co1 [4c, N-(3-(2-Aminooxazol-4-yl)-4-(benzyloxy)phenyl)-4-(trifluoromethyl)benzamide] | 225 to 227 | 47.5 ± 9.9 | –
7 | Nc1nc(-c2cc(NC(=O)c3cccc4ccccc34)ccc2OCc2ccccc2)co1 [4e, N-(3-(2-Aminooxazol-4-yl)-4-(benzyloxy)phenyl)-1-naphthamide] | 195 to 197 | 42.6 ± 3.2 | –
8 | CCNc1cc(C(=O)N[C@@H](Cc2ccccc2)[C@H](O)CNCc2cccc(C(F)(F)F)c2)c(F)c(N2CCCCS2(=O)=O)c1 [GSK188909] | – | – | IC50 [5]: 0.005 µM; blood-brain barrier permeability [6]: poor blood-brain barrier permeability
9 | Br.NC1=NN=C(c2cc(NC(=O)c3ccccc3)ccc2OCc2ccccc2)CS1 [5a, N-(3-(2-Amino-6H-1,3,4-thiadiazin-5-yl)-4-(benzyloxy)phenyl)benzamide hydrobromide] | 246 to 247 | 64.2 ± 0.5 | IC50 [4]: 16.7 µM
10 | Nc1nc(-c2cc(NC(=O)c3ccccc3)ccc2OCc2ccccc2)co1 [4a, N-(3-(2-Aminooxazol-4-yl)-4-(benzyloxy)phenyl)benzamide] | – | 38.8 ± 0.3 | –
11 | Nc1nc(-c2cc(NC(=O)c3ccccc3)ccc2OCc2ccccc2)cs1 [3a, N-(3-(2-Aminothiazol-4-yl)-4-(benzyloxy)phenyl)benzamide] | – | 29.3 ± 1.3 | –
12 | Br.NC1=NN=C(c2cc(NC(=O)c3ccc(Cl)cc3)ccc2OCc2ccccc2)CS1 [5b, N-(3-(2-Amino-6H-1,3,4-thiadiazin-5-yl)-4-(benzyloxy)phenyl)-4-chlorobenzamide hydrobromide] | 217 to 218 | 76 ± 2.5 | IC50 [4]: > 20 µM
13 | NC1=NN=C(c2cc(NC(=O)c3ccc(C(F)(F)F)cc3)ccc2OCc2ccccc2)CS1 (as salt: hydrobromid) [5c, N-(3-(2-Amino-6H-1,3,4-thiadiazin-5-yl)-4-(benzyloxy)phenyl)-4-(trifluoromethyl)-benzamide hydro-bromide] | 222 to 225 | – | –
14 | NC1=NN=C(c2cc(NC(=O)c3ccc(C(F)(F)F)cc3)ccc2OCc2ccccc2)CS1 [5c, N-(3-(2-Amino-6H-1,3,4-thiadiazin-5-yl)-4-(benzyloxy)phenyl)-4-(trifluoromethyl)-benzamide hydro-bromide] | – | 46.9 ± 7.5 | –
15 | Nc1nc(-c2cc(NC(=O)CCc3ccccc3)ccc2OCc2ccccc2)cs1 [3h, N-(3-(2-Aminothiazol-4-yl)-4-(benzyloxy)phenyl)-3-phenylpropanamide] | 192 to 193 | 3.1 ± 2.5 | –
16 | Br.COc1ccc(C(=O)Nc2ccc(OCc3ccccc3)c(C3=NN=C(N)SC3)c2)cc1 [5d, N-(3-(2-Amino-6H-1,3,4-thiadiazin-5-yl)-4-(benzyloxy)phenyl)-4-methoxybenzamide hydrobromide] | 181 to 182 | 84.9 ± 16.7 | IC50 [4]: > 20 µM
17 | NC1=NC(c2ccccc2)(c2ccccc2)C2=NCCCN12 [compound 2] | – | – | [brain] [7]: 15 µM
18 | Nc1nc(-c2cc(NC(=O)c3ccc(Cl)cc3)ccc2OCc2ccccc2)co1 [4b, N-(3-(2-Aminooxazol-4-yl)-4-(benzyloxy)phenyl)-4-chlorobenzamide] | – | 49.9 ± 0.2 | –
19 | COc1ccc(C(=O)Nc2ccc(OCc3ccccc3)c(-c3coc(N)n3)c2)cc1 [4d, N-(3-(2-Aminooxazol-4-yl)-4-(benzyloxy)phenyl)-4-methoxybenzamide] | – | 34.4 ± 5.7 | –
20 | Nc1nc(-c2cc(NC(=O)c3ccc(C(F)(F)F)cc3)ccc2OCc2ccccc2)cs1 [3c, N-(3-(2-Aminothiazol-4-yl)-4-(benzyloxy)phenyl)-4-(trifluoromethyl)benzamide] | – | 33 ± 1.9 | –
21 | Nc1nc(-c2cc(NC(=O)c3cccnc3)ccc2OCc2ccccc2)cs1 [3f, N-(3-(2-Aminothiazol-4-yl)-4-(benzyloxy)phenyl)nicotinamide] | 212 to 213 | 36.8 ± 6.9 | –
22 | Nc1nc(-c2cc(NC(=O)c3ccc(Cl)cc3)ccc2OCc2ccccc2)cs1 [3b, N-(3-(2-Aminothiazol-4-yl)-4-(benzyloxy)phenyl)-4-chlorobenzamide] | – | 20.4 ± 4.4 | –
